Experimental data from patent publication US8193364B2, “Insecticidal N-substituted (6-haloalkylpyridin-3-yl)-alkyl sulfoximines” (Dow AgroSciences, LLC., priority 2006, dated 2012).

What was measured:
Assay type in all cases: in vivo
[1] = test system: Green Leafhopper (Nephotettix sp.); assay: Green leafhopper root-uptake systemic assay on rice
Experimental: (§1) A foliar spray assay and a root-uptake systemic assay were performed on both brown planthopper and green leafhopper. Four-week-old rice seedlings were submerged in 3-cm depth of water in the bottom portion (high 5 cm, diameter 3 cm) of a 2-part glass cylinder (high 18 cm, diameter 3 cm). A metal screen was used to hold the seedlings within the bottom portion. Scotch tape was used to bind the two portions of the cylinder after setting up the seedlings. A metal cap was used to cover the cylinder. There were 4 cylinders for each treatment. The test compound was dissolved in acetone to make a 10,000 ppm stock solution. For the foliar spray assay, this stock solution was diluted with water to make 10, 2.5, 0.31, 0.08 and 0.02 ppm test solutions. A volume of 0.5 ml of a test solution or solvent blank as check was sprayed into the glass cylinder. For systemic test, the stock solution was incorporated at final test concentrations of 10, 2.5, 0.31, 0.08 and 0.02 ppm in the water in which rice seedlings were submerged. In both foliar spray and systemic tests, five laboratory-reared 3rd instar nymphs of brown planthopper or green leafhopper were introduced into each cylinder 3 hr after insecticide application. The treated test units were kept in a growth chamber with conditions set as followings: Temperature 28±0.5° C.; Relative humidity 70±0.5%; Photoperiod […].

[2] = test system: Brown Dog Tick (Rhipicephalus sanguineus); assay: Brown dog tick glass plate assay; details: 48-hour observation
Experimental: Compound 2 was evaluated in a dose response series to establish the range of activity of the test compound. Technical material was dissolved in acetone and diluted with the same solvent to obtain the test concentrations. Tick bioassays were conducted by applying 1.0 ml of the test substance to clean dry glass plates confined by 10 cm grease pencil circles drawn on the plates and spread evenly with an acid brush. The plates were allowed to dry for at least 1 hour before adult ticks were confined to the treated substrate using 10 cm Petri dish lids. Each treatment was replicated 5 times. Approximately 5 adult ticks were placed into each replicate. Mortality was assessed at 2, 8, 24 and 48 hours after introduction of the ticks into the test system. The mean percent mortality for each dosage group and time interval was determined and results from the 48-hour observation are presented in Table 10.

[3] = test system: Green Leafhopper (Nephotettix sp.); assay: Green leafhopper foliar spray assay on rice
Experimental: as §1

[4] = test system: Brown Planthopper (Nilaparvata lugens); assay: Brown planthopper root-uptake systemic assay on rice
Experimental: as §1

[5] = test system: Green Peach Aphid (Myzus persicae); assay: Green peach aphid root uptake assay on pepper; details: 3 days after infestation
Experimental: Systemic activity of compound 2 against green peach aphid was evaluated in a root uptake assay. Bell peppers (Capsicum annum var. California Wonder) was used as test plant seeded and grown in rock wool plugs. Plants were grown to expanding 1st true leaf stage. The rock wool plugs containing individual plants were placed in 1-ounce cups and surrounded with white clean sand. Five plants were used for each treatment. Stock solution of 1000 ppm was made by dissolving 2 mg of technical test compound in 2 mL acetone. The highest test concentration (10 ppm, 0.05 mg/5 ml) was prepared by diluting 0.32 mL stock solution with 1.6 mL acetone and 30.08 mL DI water, containing 6% acetone. Lower test concentrations were prepared by sequentially diluting 6.5 mL higher concentration (start from the 10 ppm test solution) with 26.0 ml acetone:DI water (6:94). A volume of 5 mL was applied to each cup (each plant). Use 6% acetone in water as solvent check. After insecticide application, the seedlings were infested with green peach aphids and held in a growth chamber (25° C., 50 R.H, 16 hr light: 8 hr drak). Number of live aphid on each plant was counted at 3 days after infestation. Calculations for % control were based on a corrected basis compared to the populations on the solvent check plants. Corrected % Control=100*(X−Y)/X • where X=No. of live aphids on solvent check plants • Y=No. of live aphids on treated plants The Corrected % Control values from lower test rates are given in Table 6.

[6] = test system: Cotton Aphid (Aphis gossypii); assay: Cotton aphid seed coating assay on squash; details: 10% SC formulation, infested 13 days after planting, counted 3 days later
Experimental: Compound 2 was tested in an assay designed to evaluate its systemic activity for control of cotton aphid through seed-coating prior to planting. The crop used in this assay was a hybrid squash (var. Pic-N-Pic). Test compound was formulated in a 10% SC formulation. For the 1 mg/seed treatment, the original 10% formulation was used. For the 0.1 mg/seed treatment, the 10% formulation were diluted 10× with DI water before application. Ten squash seeds were used for each treatment. Seeds were placed on waxed paper and a pipette was used to apply the original or diluted formulations to each seed. One half (5 ul) of the sample was spread onto one side of a seed. Once dried (approximately 1 hr), the seed was flipped over and the 2nd half of sample was spread over the other side. The air-dried, treated seeds were individually planted into 3 inch pots containing metro mix. The pots were placed on a California cart and moved into the greenhouse for sub watering only. Thirteen days later, when the seedlings were approximately 9 inch tall with three expanding true leaves, the 1st leaf was infested with approximately 40 wingless aphids. The infested plants were kept in an environmental holding room (23 C, 40% RH, 16 hr light: 8 hr dark) for three days before the number of live aphids was counted under a microscope. […]

[7] = test system: Cat Flea (Ctenocephalides felis); assay: Cat flea filter wool assay; details: 48-hour observation
Experimental: Compound 2 was evaluated in a dose response series to establish the range of activity of the test compound. Technical material was dissolved in acetone and diluted with the same solvent to obtain the test concentrations. Bioassays were conducted by treating polyester aquarium filter wool with 1.0 ml of the test solution, thoroughly saturating the substrate and allowing it to dry for at least 1 hour. The dry filter wool was then placed into 10 cm plastic Petri dishes and covered with the lid. Each treatment was replicated 5 times. Approximately 15 unfed cat flea adults were placed into each replicate of each dosage being evaluated. Mortality was assessed at 2, 8, 24 and 48 hours after introduction of the fleas into the test system. The mean percent mortality for each dosage group and time interval was determined and results from the 48-hour observation are presented in Table 9.

CC(c1ccc(C(F)(F)F)nc1)S(C)(=O)=NC#N (stereo not drawn) [Compound 2, [1-(6-trifluoromethylpyridin-3-yl)ethyl](methyl)-oxido-λ^4-sulfanylidenecyanamide]
% Control at ppm against green leafhopper ([1]; 0.02 ppm in water): D (60-69) | % Control at ppm against green leafhopper ([1]; 0.08 ppm in water): B (80-89) | % Control at ppm against green leafhopper ([1]; 0.31 ppm in water): A (90-100) | % Control at ppm against green leafhopper ([1]; 2.5 ppm in water): A (90-100) | % Control at ppm against green leafhopper ([1]; 10 ppm in water): A (90-100) | mortality at 50 ppm ([2]; 50 ppm): 28% | mortality at 500 ppm ([2]; 500 ppm): 61% | % Control at ppm against green leafhopper ([3]; 0.02 ppm): D (60-69) | % Control at ppm against green leafhopper ([3]; 0.08 ppm): A (90-100) | % Control at ppm against green leafhopper ([3]; 0.31 ppm): A (90-100) | % Control at ppm against green leafhopper ([3]; 2.5 ppm): A (90-100) | % Control at ppm against green leafhopper ([3]; 10 ppm): A (90-100) | % Control at ppm against brown planthopper ([4]; 0.02 ppm in water): F (Less than 50) | % Control at ppm against brown planthopper ([4]; 0.08 ppm in water): C (70-79) | % Control at ppm against brown planthopper ([4]; 0.31 ppm in water): A (90-100) | % Control at ppm against brown planthopper ([4]; 2.5 ppm in water): A (90-100) | % Control at ppm against brown planthopper ([4]; 10 ppm in water): A (90-100) | % Control, root uptake systemic, green peach aphid on pepper ([5]; 0.08 ug/plant): 61% | % Control, root uptake systemic, green peach aphid on pepper ([5]; 0.4 ug/plant): 95% | % Control, root uptake systemic, green peach aphid on pepper ([5]; 2 ug/plant): 100% | % Control, root uptake systemic, green peach aphid on pepper ([5]; 10 ug/plant): 100% | % Control, root uptake systemic, cotton aphid on squash ([6]; seed coating 0.1 mg/seed): 99.7% | % Control, root uptake systemic, cotton aphid on squash ([6]; seed coating 1 mg/seed): 100% | mortality at 5 ppm ([7]; 5 ppm): 18% | mortality at 50 ppm ([7]; 50 ppm): 25% | mortality at 500 ppm ([7]; 500 ppm): 40% | mortality at 5000 ppm ([7]; 5,000 ppm): 57%
